# Literature values, collected in patent US20040248775A1, “Methods for screening inhibitors of apoptosis” (Wyeth, priority 2003, published 2004).
# Target: T1, Apaf-1 (Homo sapiens, UniProt O14727)
# T1 sequence (O14727 1-1248): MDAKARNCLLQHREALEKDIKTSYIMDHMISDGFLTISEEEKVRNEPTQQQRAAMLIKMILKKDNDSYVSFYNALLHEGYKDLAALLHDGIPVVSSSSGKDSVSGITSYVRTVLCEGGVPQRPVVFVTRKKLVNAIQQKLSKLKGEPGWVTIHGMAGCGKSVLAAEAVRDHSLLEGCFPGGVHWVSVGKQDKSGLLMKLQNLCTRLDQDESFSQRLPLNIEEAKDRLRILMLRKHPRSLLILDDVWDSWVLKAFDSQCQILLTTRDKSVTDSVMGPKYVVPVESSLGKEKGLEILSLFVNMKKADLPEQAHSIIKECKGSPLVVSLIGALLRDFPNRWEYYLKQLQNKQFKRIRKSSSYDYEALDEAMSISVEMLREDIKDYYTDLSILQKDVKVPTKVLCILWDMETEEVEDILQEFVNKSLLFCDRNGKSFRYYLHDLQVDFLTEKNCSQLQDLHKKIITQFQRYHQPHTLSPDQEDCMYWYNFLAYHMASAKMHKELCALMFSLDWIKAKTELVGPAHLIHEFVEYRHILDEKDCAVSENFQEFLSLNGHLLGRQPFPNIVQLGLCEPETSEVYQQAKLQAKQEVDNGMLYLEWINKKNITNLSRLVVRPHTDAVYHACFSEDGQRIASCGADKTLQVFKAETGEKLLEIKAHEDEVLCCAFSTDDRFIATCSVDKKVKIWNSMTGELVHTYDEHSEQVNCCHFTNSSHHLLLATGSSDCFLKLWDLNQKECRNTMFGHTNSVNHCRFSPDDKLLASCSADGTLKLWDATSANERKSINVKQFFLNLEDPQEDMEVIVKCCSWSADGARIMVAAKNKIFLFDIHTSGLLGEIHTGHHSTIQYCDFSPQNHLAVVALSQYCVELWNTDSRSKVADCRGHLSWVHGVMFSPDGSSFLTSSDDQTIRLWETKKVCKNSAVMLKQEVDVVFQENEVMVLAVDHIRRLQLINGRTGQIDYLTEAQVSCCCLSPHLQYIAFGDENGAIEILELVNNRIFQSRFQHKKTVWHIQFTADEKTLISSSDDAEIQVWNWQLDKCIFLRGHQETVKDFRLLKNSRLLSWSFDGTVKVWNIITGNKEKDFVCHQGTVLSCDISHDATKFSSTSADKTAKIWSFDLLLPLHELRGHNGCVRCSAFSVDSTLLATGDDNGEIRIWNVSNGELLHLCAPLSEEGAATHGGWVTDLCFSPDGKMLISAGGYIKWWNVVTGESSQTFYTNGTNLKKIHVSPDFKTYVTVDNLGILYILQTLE
# Conditions: Jiang et al., 2000; cited from earlier work
structure (smiles),measurement,value
Nc1ncnc2c1ncn2[C@H]1C[C@H](O)[C@@H](COP(=O)(O)OP(=O)(O)OP(=O)(O)O)O1 [dATP],affinity of purine nucleotides for Apaf-1,greatest affinity
